{"source": "patent US7776570B2", "about": "“L-amino acid amide asymmetric hydrolase and DNA encoding the same” (Mitsubishi Gas Chemical Company, Inc., priority 2004, dated 2010)", "key": {"[1]": {"tested_on": "L-amino acid amide asymmetric hydrolase (transformant strain pMCA1/JM109 cells)", "test": "Asymmetric hydrolysis of racemic amino acid amides by using the transformant pMCA1/JM109", "assay_type": "biochemical, Xanthobacter flavus", "settings": "0.1% substrate, 50 mM phosphate buffer pH 7.0, 30° C.", "procedure": "A medium having a composition as shown in the following Table 3 was prepared, and 200 mL of the medium was poured into 1-L conical flask and sterilized. After that, the medium was added with 50 μg/mL ampicillin and then inoculated with the transformant strain pMCA1/JM109, followed by shaking culture at 37° C. for 15 hours. Subsequently, the culture solution was subjected to centrifugation, to thereby obtain living cells corresponding to 0.1 g of dry cells.\nEnzymatic reactions were performed by using a culture solution of the transformant strain pMCA 1/JM109 which had been cultured in the same manner as in Example 7 and a racemic mixture of various amino acid amides as a substrate. Each of the substrate compound was dissolved into 50 mM phosphate buffer (pH 7.0) such that the substrate concentration was adjusted to 0.1%, and the substrate solution was added with the cells to perform an enzymatic reaction at 30° C. […] In any of the reactions, selectivity of hydrolysis is selective to an L-form, and optical purity of the produced L-amino acid was not less than 98% e.e."}, "X. flavus living cells": {"tested_on": "X. flavus living cells", "test": "Asymmetric hydrolysis of 2-methylcysteine amide racemic mixture by using a wild-type microorganism", "assay_type": "biochemical, Xanthobacter flavus", "settings": "for 2-methylcysteine produced: 30° C., 24 hours, HPLC condition B; for optical purity of the L-amino acid: supernatant, HPLC condition A", "procedure": "A medium having a composition as shown in the following Table 5 was prepared, and 200 mL of the medium was poured into a 1-L conical flask and sterilized. After that, X. flavus was inoculated thereto and shaking culture was performed at 30° C. for 170 hours. Subsequently, the culture solution was subjected to centrifugation, to thereby obtain living cells corresponding to 0.1 g of dry cells.\n10.0 g (58.6 mmol) of racemic mixture of 2-methylcysteine amide hydrochloride was dissolved into 300 mL of 50 mM phosphate buffer (pH 7.0). After that, the mixture was poured into a 500-mL flask, which was added with an aqueous manganese chloride solution such that the concentration of a divalent Mn ion became 10 ppm, and further added with the living cells corresponding to 0.01 g of dry cells, followed by stirring culture at 30° C. for 24 hours under a nitrogen stream to allow a hydrolysis reaction to proceed. After completion of the reaction, the reaction solution was subjected to centrifugation to remove the cells, and the supernatant was analyzed under the HPLC condition B as shown in the following Table 6.\n10 L of the culture solution obtained after culture in the medium composition in Comparative Example 1 was subjected to centrifugation, to thereby obtain living cells corresponding to 5 g of dry cells of X. flavus. 10.0 g (58.6 mmol) of a racemic mixture of 2-methylcysteine amide hydrochloride was dissolved into 300 mL of 50 mM phosphate buffer (pH 7.0). After that, the mixture was poured into 500-mL flask, which was added with an aqueous manganese chloride solution such that the concentration of a divalent Mn ion became 10 ppm, and further added with the living cells corresponding to 5 g of dry cells, followed by stirring culture at 30° C. for 24 hours under a nitrogen stream to allow a hydrolysis reaction to proceed. After completion of the reaction, the reaction solution was subjected to centrifugation to remove the cells therefrom, and the supernatant was analyzed under the HPLC condition B. As a result, it was confirmed that 28.2 mmol of 2-methylcysteine was produced. In addition, the supernatant was analyzed under the HPLC condition A, and as a result, the optical purity of the L-amino acid was not less than 98% e.e.\nA biochemical asymmetric hydrolysis reaction was performed in the same manner as in Comparative Example 2 except that the aqueous manganese chloride solution was not added. The reaction was performed at 30° C. for 24 hours. After completion of the reaction, the reaction solution was subjected to centrifugation to remove the cells therefrom, and then the supernatant was analyzed under the HPLC condition B. As a result, it was confirmed that 13.9 mmol of 2-methylcysteine was produced. In addition, the supernatant was analyzed under the HPLC condition A, and as a result, the optical purity of the L-amino acid was not less than 98% e.e."}, "[2]": {"settings": "substrate weight/dry cell weight 0.1, reaction time 24 hr"}, "[3]": {"settings": "substrate weight/dry cell weight 0.01, reaction time 24 hr"}, "[4]": {"settings": "substrate weight/dry cell weight 0.01, reaction time 5 hr"}, "[5]": {"settings": "5 g dry cells, no manganese chloride added"}}}
{"compound": "CC(C)(C)[C@H](N)C(N)=O", "note": "(racemic) [t-leucine amide]", "values": [{"measurement": "Reaction rate", "setting": "[1]; [2]", "value": 44.4, "unit": "%"}]}
{"compound": "CC(C)[C@H](N)C(N)=O", "note": "(racemic) [Valine amide]", "values": [{"measurement": "Reaction rate", "setting": "[1]; [3]", "value": 44.3, "unit": "%"}]}
{"compound": "NC(=O)[C@@H](N)Cc1ccccc1", "note": "(racemic) [Phenylalanine amide]", "values": [{"measurement": "Reaction rate", "setting": "[1]; [4]", "value": 47.8, "unit": "%"}]}
{"compound": "NC(=O)C(N)c1ccccc1", "note": "(racemic) [Phenylglycine amide]", "values": [{"measurement": "Reaction rate", "setting": "[1]; [4]", "value": 48.8, "unit": "%"}]}
{"compound": "Allicin amide ethylene acetal", "values": [{"measurement": "Reaction rate", "setting": "[1]; [3]", "value": 44.3, "unit": "%"}]}
{"compound": "CCC(N)C(N)=O", "note": "(stereo not shown) [2-amino butyrate amide]", "values": [{"measurement": "Reaction rate", "setting": "[1]; substrate weight/dry cell weight 0.1, reaction time 5 hr", "value": 49.2, "unit": "%"}]}
{"compound": "CC(C)(S)[C@H](N)C(N)=O", "note": "(racemic) [penicillamine amide]", "values": [{"measurement": "Reaction rate", "setting": "[1]; [4]", "value": 44.9, "unit": "%"}]}
{"compound": "CC1(C)SCNC1C(N)=O", "note": "(stereo not shown) [5,5-dimethylthiazolidin-4-carboxylate amide]", "values": [{"measurement": "Reaction rate", "setting": "[1]; [2]", "value": 47.0, "unit": "%"}]}
{"compound": "C[C@](N)(CS)C(N)=O.Cl", "note": "(racemic) [2-methylcysteine amide, 2-methylcysteine amide hydrochloride]", "values": [{"measurement": "2-methylcysteine produced", "setting": "X. flavus living cells; 0.01 g dry cells, 58.6 mmol substrate, 10 ppm divalent Mn ion", "value": "no 2-methylcysteine as a product was observed"}, {"measurement": "2-methylcysteine produced", "setting": "X. flavus living cells; 5 g dry cells, 58.6 mmol substrate, 10 ppm divalent Mn ion", "value": 28.2, "unit": "mmol"}, {"measurement": "optical purity of the L-amino acid", "setting": "X. flavus living cells; 5 g dry cells, 10 ppm divalent Mn ion", "value": "not less than 98 % e.e."}, {"measurement": "2-methylcysteine produced", "setting": "X. flavus living cells; [5]", "value": 13.9, "unit": "mmol"}, {"measurement": "optical purity of the L-amino acid", "setting": "X. flavus living cells; [5]", "value": "not less than 98 % e.e."}]}
